From ChEMBL document CHEMBL4229445, “Activity of steroid 4 and derivatives 4a-4f as inhibitors of the enzyme 5α-reductase 1” (Bioorg Med Chem, 2018)
Activity calls are given as the source filed them. The rule behind the calls is not given here.

Assays:
[1] = target: T1, 3-oxo-5-alpha-steroid 4-dehydrogenase 2 (Homo sapiens) (UniProt P31213); test: Inhibition of 5alpha-reductase2 (unknown origin)
T1 sequence (whole entry): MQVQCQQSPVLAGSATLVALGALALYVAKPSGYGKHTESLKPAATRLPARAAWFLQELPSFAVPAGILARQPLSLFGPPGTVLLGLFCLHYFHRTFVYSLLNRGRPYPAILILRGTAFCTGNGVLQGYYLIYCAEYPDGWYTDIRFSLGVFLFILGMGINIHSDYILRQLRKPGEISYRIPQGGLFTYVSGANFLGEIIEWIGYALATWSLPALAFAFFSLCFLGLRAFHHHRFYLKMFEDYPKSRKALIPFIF

[2] = system: Syrian golden hamster; test: Inhibition of testosterone-induced flank organ enlargement in golden hamster assessed as reduction in diameter of pigmented spot at 2 mg/kg, sc administered daily for 6 days measured post last dose by calliper method; type: functional, organism-based; conditions: Mesocricetus auratus
[3] = system: Syrian golden hamster; test: Inhibition of testosterone-induced increase in prostate weight in golden hamster at 2 mg/kg, sc administered daily for 6 days measured post last dose; type: functional, organism-based; conditions: Mesocricetus auratus
[4] = system: Syrian golden hamster; test: Inhibition of testosterone-induced increase in seminal vesicle weight in golden hamster at 2 mg/kg, sc administered daily for 6 days measured post last dose; type: functional, organism-based; conditions: Mesocricetus auratus
[5] = target: T2, 3-oxo-5-alpha-steroid 4-dehydrogenase 1 (Rattus norvegicus, UniProt P24008); test: Inhibition of rat liver microsomes 5alpha-reductase1 using [1,2,6,7-3H]T as substrate measured after 60 mins by chromatographic method
T2 sequence (P24008 whole entry): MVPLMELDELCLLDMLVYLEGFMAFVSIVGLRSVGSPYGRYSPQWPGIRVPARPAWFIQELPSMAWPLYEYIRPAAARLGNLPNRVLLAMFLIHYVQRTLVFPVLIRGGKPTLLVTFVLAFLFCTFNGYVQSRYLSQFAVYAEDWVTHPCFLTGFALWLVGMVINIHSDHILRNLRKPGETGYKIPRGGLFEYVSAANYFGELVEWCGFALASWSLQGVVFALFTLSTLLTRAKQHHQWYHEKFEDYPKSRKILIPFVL

[6] = Drug metabolism in golden hamster plasma assessed as esterase-mediated 21(2-Oxo-ethyl-benzimidazol)-3-ceto, pregnen-16,17-diene formation by measuring retardation factor at 4 mg/kg, sc measured after 30 mins in presence of testosterone by TLC method; type: ADME, organism-based, Mesocricetus auratus; conditions: in vivo, 0.5 h
[7] = Stability of the compound in water; type: physicochemical; conditions: buffer
[8] = Drug metabolism in golden hamster plasma assessed as esterase-mediated 21(2-Oxo-ethyl-benzimidazol)-3-ceto, pregnen-16,17-diene formation at 4 mg/kg, sc measured after 60 to 120 mins in presence of testosterone by TLC method; type: ADME, organism-based, Mesocricetus auratus; conditions: in vivo
[9] = system: Syrian golden hamster; test: Inhibition of testosterone-induced flank organ enlargement in golden hamster assessed as diameter of pigmented spot at 2 mg/kg, sc administered daily for 6 days measured post last dose by calliper method; type: functional, Mesocricetus auratus
[10] = system: Syrian golden hamster; test: Inhibition of testosterone-induced increase in prostate weight in golden hamster at 1 mg/kg, sc administered daily for 6 days measured post last dose; type: functional, organism-based; conditions: Mesocricetus auratus
[11] = system: Syrian golden hamster; test: Inhibition of testosterone-induced increase in seminal vesicle weight in golden hamster at 1 mg/kg, sc administered daily for 6 days measured post last dose; type: functional, organism-based; conditions: Mesocricetus auratus
[12] = system: Syrian golden hamster; test: Inhibition of testosterone-induced flank organ enlargement in golden hamster assessed as reduction in diameter of pigmented spot at 1 mg/kg, sc administered daily for 6 days measured post last dose by calliper method; type: functional, organism-based; conditions: Mesocricetus auratus

SMILES | inhibition [1] | inhibition [2] | inhibition [3] | inhibition [4] | IC50 ([5]; read-out: IC50) | Rf [6] | Stability [7] | Drug metabolism [8] | IC50 [5] | Activity [9] | inhibition [10] | inhibition [11] | inhibition [12]
C[C@]12CC[C@H](O)CC1=CC[C@@H]1[C@@H]2CC[C@]2(C)C(n3cnc4ccccc43)=C(C=O)C[C@@H]12 | inactive | Active | Active | Active | 0.291 µM | – | – | – | – | – | – | – | –
C[C@]12CC[C@H](OC(=O)c3ccc(Cl)cc3)CC1=CC[C@@H]1[C@@H]2CC[C@]2(C)C(n3cnc4ccccc43)=C(C=O)C[C@@H]12 | inactive | Active | Active | Active | 83 µM | 0.42 | Unstable | – | – | – | – | – | –
C[C@]12CC[C@H](OC(=O)c3ccc(Br)cc3)CC1=CC[C@@H]1[C@@H]2CC[C@]2(C)C(n3cnc4ccccc43)=C(C=O)C[C@@H]12 | inactive | Active | Active | Active | – | 0.42 | Stable | Metabolite_Detected | Not Active | – | – | – | –
C[C@]12CC[C@H](OC(=O)c3ccc(I)cc3)CC1=CC[C@@H]1[C@@H]2CC[C@]2(C)C(n3cnc4ccccc43)=C(C=O)C[C@@H]12 | inactive | Active | Active | Active | – | 0.42 | Stable | – | Not Active | – | – | – | –
C[C@]12CC[C@H](OC(=O)c3ccc(F)cc3)CC1=CC[C@@H]1[C@@H]2CC[C@]2(C)C(n3cnc4ccccc43)=C(C=O)C[C@@H]12 | inactive | – | Active | Active | 40 µM | 0.42 | Unstable | – | – | 1.7 mm | – | – | –
C[C@]12CC[C@H](OC(=O)c3ccccc3)CC1=CC[C@@H]1[C@@H]2CC[C@]2(C)C(n3cnc4ccccc43)=C(C=O)C[C@@H]12 | inactive | Active | Active | Active | – | – | Stable | Metabolite_Detected | Not Active | – | – | – | –
Cc1ccc(C(=O)O[C@H]2CC[C@@]3(C)C(=CC[C@@H]4[C@@H]3CC[C@]3(C)C(n5cnc6ccccc65)=C(C=O)C[C@@H]43)C2)cc1 | inactive | Active | Active | Active | – | – | Stable | Metabolite_Detected | Not Active | – | – | – | –
CC(C)(C)NC(=O)[C@H]1CC[C@H]2[C@@H]3CC[C@H]4NC(=O)C=C[C@]4(C)[C@H]3CC[C@]12C | – | – | – | – | – | – | – | – | – | – | Active | Active | Active
